Patent US7501415B2, “Selective inhibitors of ERK protein kinase and uses thereof” (Vertex Pharmaceuticals Incorporated, priority 2004, dated 2009)

Biological target: activated ERK2 (Homo sapiens, UniProt P28482)
Test: ERK2 inhibition assay, spectrophotometric coupled-enzyme assay
Format: biochemical
Conditions: activated ERK2 10 nM, 65 μM ATP, 200 μM erktide peptide, 30° C., pH 7.5
Procedure: In this assay, a fixed concentration of activated ERK2 (10 nM) was incubated with various concentrations of a compound of the present invention in DMSO (2.5%) for 10 min. at 30° C. in 0.1 M HEPES buffer (pH 7.5), containing 10 mM MgCl2, 2.5 mM phosphoenolpyruvate, 200 μM NADH, 150 μg/ml pyruvate kinase, 50 μg/ml lactate dehydrogenase, and 200 μM erktide peptide.

Chain of activated ERK2 (P28482 whole entry): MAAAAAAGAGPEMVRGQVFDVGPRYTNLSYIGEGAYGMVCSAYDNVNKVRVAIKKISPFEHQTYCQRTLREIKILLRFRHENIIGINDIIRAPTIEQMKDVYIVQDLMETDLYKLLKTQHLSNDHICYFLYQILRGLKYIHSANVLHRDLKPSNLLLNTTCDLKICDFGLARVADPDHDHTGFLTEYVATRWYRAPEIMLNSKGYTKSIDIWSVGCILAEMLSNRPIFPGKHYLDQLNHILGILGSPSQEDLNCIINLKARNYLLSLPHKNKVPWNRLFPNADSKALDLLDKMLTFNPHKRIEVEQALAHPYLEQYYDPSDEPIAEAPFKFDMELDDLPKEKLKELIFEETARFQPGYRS

Ki | SMILES
< 100 nM | Cc1cnc(Nc2cccc(Cl)c2Cl)nc1-c1c[nH]c(C(=O)NC(CO)c2ccccc2)c1 (centres unmarked) [Compound I-6]
< 100 nM | Cc1cccc(C(CO)NC(=O)c2cc(-c3nc(Nc4ccccc4Cl)ncc3C)c[nH]2)c1 (centres unmarked) [Compound I-10]
< 100 nM | Cc1cnc(Nc2ccccc2Cl)nc1-c1c[nH]c(C(=O)NC(CO)c2cccc(C(F)(F)F)c2)c1 (centres unmarked) [Compound I-11]
< 100 nM | Cc1cnc(Nc2c(F)cccc2Cl)nc1-c1c[nH]c(C(=O)NC(CO)c2ccccc2)c1 (centres unmarked) [Compound I-12]

Further lines, the compound ahead of its results:

SMILES | Ki
Cc1cnc(Nc2ccc(Cl)cc2Cl)nc1-c1c[nH]c(C(=O)NC(CO)c2ccccc2)c1 (centres unmarked) [Compound I-3] | < 100 nM
Cc1cnc(Nc2ccc([N+](=O)[O-])cc2Cl)nc1-c1c[nH]c(C(=O)NC(CO)c2ccccc2)c1 (centres unmarked) [Compound I-4] | < 100 nM
Cc1cnc(Nc2c(Cl)cccc2Cl)nc1-c1c[nH]c(C(=O)NC(CO)c2ccccc2)c1 (centres unmarked) [Compound I-8] | > 100 nM
Cc1cnc(Nc2c(C)cccc2Cl)nc1-c1c[nH]c(C(=O)NC(CO)c2ccccc2)c1 (centres unmarked) [Compound I-9] | > 100 nM
